Seven compounds from US6060568A, “Carbene transition metal catalysts” (The Governors of the University of Alberta, priority 1999, dated 2000) can be followed below.

A short description of assay [1]: Low temperature and pressure slurry polymerization on catalyst screening unit (CSU). The settings on record: 10 psig. How it is done:
Low pressure and temperature slurry polymerization experiments were conducted on a catalyst screening unit (CSU) where polymerization occurs in a cyclohexane reaction media, ethylene is fed to the reactor on demand and is monitored by a mass flow meter. On the CSU, reaction temperatures are monitored and controlled by thermocouples and one RTD. Reactor temperature control is maintained by a HAAKE circulating water bath which has external thermostatic control via the thermocouple at the reactor core. Reactor temperature is maintained by the water from the bath entering the jacket-like coolant chamber surrounding the reactor. Reaction pressures are indicated by mechanical pressure gauges and monitored manually.
The CSU shares the purified ethylene and cyclohexane feeds with the solution semi-batch reactor (SBR). Ultra-High-Purity argon from PRAXAIR which is purified further by 13× and OXICLEAR on a separate gas purification unit is used for reactor system purging and solvent sparging. The polymerization products are quantitatively recovered for mass determination, and polymerization activities are then calculated based upon mass of product, millimoles of catalyst injected and reaction time.
Examples 25-32 were conducted on a catalyst screening unit (CSU).
Catalyst Concentration 50 μmol/L (Zr)
Catalyst Mole Ratio Al/Zr = 500/1
Polymethylaluminoxane (PMAO-IP)
Reaction Temperature Setpoint 35° C.
Reactor Pressure Setpoint 10 psig total
Stirring Speed ~2250 +/- 300 rpm Initially
Catalyst Concentration 50 μmol/L (M)
Catalyst Mole Ratio Al/B/M = 20/1.05/1
Modified Methylaluminoxane (MMAO-

A short description of assay [2]: Solution phase ethylene polymerization, semi-batch reactor (SBR). How it is done:
(§1) All the solution polymerization experiments described below were conducted using an Autoclave Engineers Zipperclave reactor (500 mL). All the chemicals (solvent, catalyst and cocatalyst) were fed into the reactor batchwise except ethylene which was fed on demand. No product was removed during the polymerization reaction. As are known to those skilled in the art, all the feed streams were purified prior to feeding into the reactor by contact with various absorption media to remove catalysts killing impurities such as water, oxygen, sulfur and polar materials. All components were stored and manipulated under an atmosphere of purified argon or nitrogen. The reactor uses a programmable logical control (PLC) system with Wonderware 5.1 s, oftware for the process control. Ethylene polymerizations were performed in the reactor equipped with an air driven stirrer and an automatic temperature control system.
The catalyst was dissolved in toluene. The polymerization reaction time is typically 10 minutes. The reaction was terminated by adding 5 mL of methanol to the reactor and the polymer was recovered by evaporation of the solvent. The polymerization activities were calculated based on the ethylene consumption.
Examples 1-18 were conducted on a solution semi-batch reactor (SBR).
SBR Experimental Conditions with MAO Activation
Catalyst Concentration 200 μmol/L
PMAO-IP Al/Zr = 300 (mol/mol)
Reaction Temperature 160° C.
Reactor Pressure 140 psig total
Stirring Speed 2000 rpm
SBR Experirimental Conditions with Trinitylborate Activation
PMAO-IP 1 mmol/L as impurity scavenger
^a SBR standard MAO screening conditions.
^b Insitu alkylation: PMAOIP (Al/M = 20) premixed with catalyst, the
mixture and tritylborate solution were injected into the reactor
^c SBR standard trityl borate screening conditions.
^d Premix catalyst and cocatalyst.
^e Zr(Bz)4 as scavenger at 1.2 mmol/L. […]

Assay [3] can be described thus: Gas phase polymerization, supported catalyst, semi-batch gas phase reactor. The note with it: 200 psig, 90° C., 60 minutes; for Yield PE: 50-54 mg supported catalyst. The text has this:
The catalyst preparation methods described below employ typical techniques for the syntheses and handling of air-sensitive materials. Standard Schlenk and drybox techniques were used in the preparation of ligands, metal complexes, support substrates and supported catalyst systems. Solvents were purchased as anhydrous materials and further treated to remove oxygen and polar impurities by contact with a combination of activated alumina, molecular sieves and copper oxide on silica/alumina. Where appropriate, elemental compositions of the supported catalysts were measured by Neutron Activation analysis and a reported accuracy of ±1% (weight basis).
The supported catalysts were prepared by initially supporting MAO on a silica support, followed by deposition of the catalyst component.
(§2) All the polymerization experiments described below were conducted using a semi-batch, gas phase polymerization reactor of total internal volume of 2.2 L. Reaction gas mixtures, including ethylene were measured to the reactor on a continuous basis using a calibrated thermal mass flow meter, following passage through purification media as described above. A pre-determined mass of the catalyst sample was added to the reactor under the flow of the inlet gas with no pre-contact of the catalyst with any reagent, such as a catalyst activator. The catalyst was activated in situ (in the polymerization reactor) at the reaction temperature in the presence of the monomer, using a metal alkyl complex which has been previously added to the reactor to remove adventitious impurities. Purified and rigorously anhydrous sodium chloride was used as a catalyst dispersing agent.
The internal reactor temperature is monitored by a thermocouple in the polymerization medium and can be controlled at the required set point to +/-1.0° C. The duration of the polymerization experiment was one hour. Following the completion of the polymerization experiment, the polymer was separated from the sodium chloride and the yield determined. The following table illustrates bench scale gas phase reaction conditions.
Solvent 5-10 mL hexane added with catalyst
Operating Mode Gas Phase
(§3) Aluminum alkyl 25-30 wt. % triisobutyl aluminum
(§4) Reaction Pressure 200 psig
(§5) Reaction Temperature 90° C.
(§6) Reaction Time 60 minutes
Examples 19-22 are examples of the gas phase polymerization. The next table illustrates data concerning the Al/transition metal ratios of the supported catalyst, polymer yield and polymer properties.

Assay [4] in a line: High temperature and pressure slurry polymerization, supported catalyst. The note with it: slurry in hexane, 200 psig, 90° C., 60 minutes. The procedure:
The supported catalyst described in Part B was also used for the slurry polymerization tests.
as §2, with “a semi-batch” for “a semi-batch, gas phase polymerization”, “sample as” for “sample was”, “complex and solvent” for “complex”, “which have” for “which has”, “impurities.” for “impurities. Purified and rigorously anhydrous sodium chloride was used as a catalyst dispersing agent.”
The internal reactor temperature is monitored by a thermocouple in the polymerization medium and can be controlled at the required set point to +/-1.0° C. The duration of the polymerization experiment was one hour. Following the completion of the polymerization experiment, the slurry was transferred from the reactor to a bowl, and the solvent was left to evaporate. The following table illustrates bench scale slurry phase reaction conditions.
Operating Mode Slurry Phase
as §3, §4, §5, §6
Examples 23-24 are high pressure and temperature slurry polymerization examples. The next table illustrates data concerning the Al/transition metal ratios of the supported catalyst; polymer yield and polymer properties.

Assay [5] in a line: Solution phase copolymerization of ethylene with 1-octene, semi-batch reactor (SBR). The settings on record: [CPh3 ][B(C6 F5)4 ]; copolymerization with 20 mL of 1-octene; based on polymer weight. The procedure:
Polymer molecular weights and molecular weight distributions were measured by GPC (Waters 150-C) at 140° C. in 1,2,4-trichlorobenzene calibrated using polyethylene standards.
as §1
The catalyst was dissolved in toluene. The polymerization reaction time is typically 10 minutes. […] The polymerization activities were calculated based on the ethylene consumption. […]
were calculated based on polymer weight. 20.7 Br/1000 C detected by NMR […]

The mark [6] stands for this setting: SBR standard MAO screening: PMAO-IP, Al/Zr = 300, 160° C., 140 psig.
Setting [7] is: MMAO-7/[CPh3 ][B(C6 F5)4 ], Al/B/M = 20/1.05/1, 35° C.
Where [8] appears, read: SBR standard trityl borate screening: [CPh3 ][B(C6 F5)4 ], 160° C., 140 psig.
The mark [9] stands for this setting: [CPh3 ][B(C6 F5)4 ], in situ alkylation, PMAO-IP (Al/M = 20) premixed with catalyst, 160° C.

For the compound `[Cl][Zr+2][Cl].c1cc[cH-]c1.c1cc[cH-]c1` [Cp2 ZrCl2, reference compound], the Activity in assay [1] (PMAO-IP, Al/Zr = 500/1, 35° C.) was determined as 2692 gPE/mmol cat*hr; in assay [2] (setting [6]) it was 1339.9 gPE/mmol cat*hr.

Turning to [ZnMe{HC(Ph2 P=NSiMe3)2 }] [AK-17], in assay [3], the Yield per catalyst turned out to be 0 gPE/g Catalyst, the Yield per metal was determined as 0 gPE/g Metal and the “Yield PE” value stood at 0 g. Moreover, the Activity in assay [1] (setting [7]) was 4 gPE/mmol cat*hr. For the same compound, the Activity in assay [2] (setting [8]) is given as 89.78 gPE/mmol cat*hr.

Consider “[ZrCl2 {(C(O)(NAd))C(Ph2 P=NSiMe3)2 }] [KB-103]”, for which the Yield per catalyst in assay [3] is given as 8 gPE/g Catalyst. Also, in assay [3], the Yield per metal is listed as 1607 gPE/g Metal. Also, in assay [3], the “Yield PE” value was determined as 0.4 g. Besides, the Activity in assay [1] (PMAO-IP, Al/Zr = 500/1, 35° C.) came to 0 gPE/mmol cat*hr; in assay [2] (setting [6]), 129.0 gPE/mmol cat*hr; in assay [2] (setting [9]) it was 498.7 gPE/mmol cat*hr.

As for [ZrCl2 {C(Cy2 =NSiMe3)2 }] [Zr-3C], the Activity in assay [1] (PMAO-IP, Al/Zr = 500/1, 35° C.) is on record as 0 gPE/mmol cat*hr; in assay [2] (setting [6]) it was 22.7 gPE/mmol cat*hr; in assay [2] (setting [9]), 70.6 gPE/mmol cat*hr.

Consider [ZrCl2 {C(Ph2 P=NSiMe3)2 }] [Zr-3D], for which the Yield per catalyst in assay [3] amounted to 0 gPE/g Catalyst; in assay [4], 4 gPE/g Catalyst. Further, the Yield per metal in assay [3] was determined as 0 gPE/g Metal; in assay [4], 915 gPE/g Metal. The “Yield PE” value worked out at 0 g in assay [3] and 0.6 g in assay [4] (122-137 mg supported catalyst). Moreover, the Activity in assay [1] (PMAO-IP, Al/Zr = 500/1, 35° C.) came to 1 gPE/mmol cat*hr; in assay [2] (setting [6]) it was 14.2 gPE/mmol cat*hr.

With [ZrMe2 {C(Cy2 =NSiMe3)2 }] [Zr-3C-Me2], the Activity in assay [5] is given as 8.22 gPE/mmol cat*hr; in assay [1] (setting [7]) it was 29 gPE/mmol cat*hr; in assay [2] (setting [8]) it was 56.8 gPE/mmol cat*hr.

For the compound “[Zr{C(Ph2 P=NSimMe3)2 }(CH2 C6 H5)2 ] [Zr-6D]”, the Activity in assay [5] was 10.5 gPE/mmol cat*hr; in assay [1] (PMAO-IP, Al/Zr = 500/1, 35° C.), 13 gPE/mmol cat*hr; in assay [2] (setting [8]) it was 11.6 gPE/mmol cat*hr; in assay [2] ([CPh3 ][B(C6 F5)4 ], Zr(Bz)4 as scavenger at 1.2 mmol/L, 160° C.), 14.4 gPE/mmol cat*hr; in assay [2] ([CPh3 ][B(C6 F5)4 ], premix catalyst and cocatalyst, 160° C.), 42.7 gPE/mmol cat*hr; in assay [2] (cocatalyst B(C6 F5)3, footnote c standard trityl borate screening conditions, 160° C.) it was 9.12 gPE/mmol cat*hr.
